# Source: patent US11352315B2, “Compositions and methods comprising a triaryl polyamine” (Curza Global, LLC, priority 2017, dated 2022)
# How the values were obtained:
# [1] = tested on: MRSA; experiment: MIC analysis; type: cell-based; settings: Staphylococcus aureus, 24 hours
# Protocol: (§1) A clinical strain of MRSA, isolated from a patient who underwent arthroscopic knee surgery and characterized by ARUP Laboratories, Salt Lake City, Utah, was used for this study in addition to Pseudomonas aeruginosa ATCC 27853 and Alcanivorax borkumensis ATCC 700651. P. aeruginosa was resuspended in BHI broth, grown overnight at 37° C. and transferred to fresh BHI with 30% glycerol for storage at −80° C. The MRSA isolate was likewise stored in BHI with 30% glycerol at −80° C. […] Before performing MIC analysis and biofilm experiments, the frozen stocks of MRSA and P. aeruginosa were streaked onto Columbia blood agar plates and grown overnight at 37° C. A. borkumensis ATCC 700651 was resuspended from a lyophilized pellet into marine broth, grown overnight at 30° C. and passaged on marine agar plates prior to experimentation.
# (§2) To determine the MIC of polyamine compounds, the protocol described herein was used.
# (§3) In brief, a 0.5 McFarland of each bacterial isolate was made. A 0.5 McFarland is a measure of turbidity in a liquid sample that contains approximately 1×10^^8 CFU/mL. The 0.5 McFarland standard was diluted in cation adjusted Mueller Hinton Broth (CAMHB), and 50 μL of broth were added to a well of a 96-well plate. In addition, 50 μL of CAMHB that contained a desired concentration of antimicrobial were also added to the well for a final volume of 100 μL and a final concentration of approximately 5×10^4 CFU/well (which equated to approximately 5×10^5 CFU/mL). Each well contained a desired amount of polyamine compound in order to experimentally determine the MIC. Each 96-well plate was incubated at 37° C. for 24 hours. The contents of each well were plated on tryptic soy agar (TSA). TSA plates were incubated for 37° C. for 24 hours after which the number of CFU were counted and used to calculate the CFU/mL that remained after exposure to varying concentrations of compound. This procedure was repeated n=8 times for each concentration of antimicrobial.
# [2] = tested on: P. aeruginosa; experiment: MIC analysis; type: cell-based; settings: Pseudomonas aeruginosa, 24 hours
# Protocol: as §1, §2, §3
# [3] = tested on: A. baumannii; experiment: MIC analysis; type: cell-based; settings: Acinetobacter baumannii, 24 hours
# Protocol: as §2, §3
# [4] = tested on: A. baumannii; experiment: MBEC analysis, MBEC Inoculation Tray (column headed MBC); type: cell-based; settings: Acinetobacter baumannii, 24 hours
# Description: (§4) To determine the MBEC of each polyamine compound, the MBEC Inoculation Tray by Innovotech, formerly known as the Calgary biofilm device, was used. Within this device, biofilms grow on the surface of polystyrene pegs, 96 of which are attached to a lid. These pegs are inserted into a flat bottom 96-well plate. In this instance, the MBEC of a molecule was defined as the concentration of compound (in μg/mL) required to reduce 10^5 or 10^6 CFU/peg (biofilm levels varied by isolate) to 10^2 CFU/peg in a 24-hour period.
# (§5) Following the manufacturer's guidelines, biofilms were grown on the surface of each peg by first making a 0.5 McFarland of each isolate. The 0.5 McFarland was diluted 1:100 in CAMHB. Into each well of a flat bottom 96-well plate, 150 μL of broth were pipetted. The plate was shaken at 100 rpm for 24 hours (P. aeruginosa and A. baumannii) or 48 hours (MRSA). The pegs were then placed into a separate flat bottom 96-well plate for 10 seconds with 200 μL of phosphate buffered saline (PBS) in each well to remove nonadherent cells. The lid was then placed into a 96-well plate that contained varying concentrations of antimicrobial with 200 μL per well. The plate was incubated for 24 hours at 37° C. after which time 100 μL of broth were plated on TSA. TSA plates were incubated 24 hours at 37° C. and the number of CFU counted to calculate the CFU/peg. In this instance, the MBEC was defined as the concentration of antimicrobial required to reduce 10^5 or 10^6 CFU/peg to 10^2 CFU/peg in a 24 hour period.
# [5] = tested on: MRSA; experiment: as above; type: cell-based; settings: Staphylococcus aureus, 24 hours
# Description: as §4, §5
# [6] = tested on: P. aeruginosa; experiment: as above; type: cell-based; settings: Pseudomonas aeruginosa, 24 hours
# Description: as §4, §5
# [7] = tested on: MRSA; experiment: EBEC analysis, high number biofilms on PEEK membranes; type: cell-based, Staphylococcus aureus; settings: 24 hours
# Protocol: (§6) To determine the efficacy of polyamine compounds against high number biofilms, biofilms were grown on the surface of polyetheretherketone (PEEK) membranes using a membrane biofilm reactor. This reactor was similar to the CDC biofilm reactor, but rather than growing biofilms on coupon surfaces, the reactor was modified to hold PEEK membranes. In short, to grow biofilms within this system, 500 mL of brain heart infusion (BHI) broth were inoculated with 1 mL of a 0.5 McFarland. The reactor was placed on a hot plate set at 34° C. and the bacteria were grown under batch conditions for 24 hours.
# (§7) A solution of 10% BHI was then flowed through the reactor at a rate of 6.94 mL/min for an additional 24 hours. PEEK membranes were then removed and placed into 2 mL of CAMHB that contained a desired concentration of polyamine compound or antibiotic. The EBEC was defined as the concentration of antimicrobial required to reduce a biofilm from approximately 10^9 CFU/PEEK membrane to approximately 10^2 CFU/PEEK membrane in a 24-hour period.
# [8] = tested on: A. baumannii; experiment: as above; type: cell-based, Acinetobacter baumannii; settings: 24 hours
# Protocol: as §6, §7
# [9] = tested on: A. baumannii; experiment: Wound healing study, porcine excision wound model (Example 3); type: in vivo, Acinetobacter baumannii; settings: for CFU/g Tissue: necropsy at 28 days
# Protocol: An IACUC-approved in vivo analysis utilized an excision wound model in swine. Up to 32 partial thickness wounds were created/animal using a 1 cm biopsy punch (FIG. 1A). Wounds were inoculated with ^˜1×10^8 colony forming units (CFU) of A. baumannii in the planktonic or biofilm phenotype. Well-established biofilms were grown on the surface of bio-absorbable collagen in a modified CDC biofilm reactor for 8 days (FIG. 1B). An n=8 wounds were used for each treatment group.
# For the treatment groups, infection was allowed to establish in each wound for 5 days after which time treatment with an antimicrobial began. […] In a separate pig, wounds were inoculated as above and a combination of colistin/imipenem (2.5 mg/each) was administered IV for 14 days for comparison to the current clinical standard of care for A. baumannii. […] Swine were monitored for 28 days. Wound size was measured daily. Culture swabs were collected regularly. At the time of necropsy, a 5 mm biopsy punch was used to collect tissue and calculate CFU/g using standard microbiological procedure. ANOVA analysis was used to compare differences in data with alpha 0.05.
# [10] = tested on: A. baumannii ATCC BAA 1605; experiment: MIC testing against the planktonic phenotype (Example 5); type: cell-based; settings: Acinetobacter baumannii, BAA1605, 24 hr at 37° C.
# Protocol: (§8) The isolate was maintained on Columbia blood agar and passaged as necessary with overnight incubation at 37° C.
# Minimum inhibitory concentration (MIC) testing against the planktonic phenotype was performed first. To do so, a modified protocol of the Clinical and Laboratory Standards Institute (CLSI) guideline M100 was used. In short, using a fresh overnight culture of bacteria, a 0.5 McFarland standard was made in PBS using a nephelometer, then diluted to achieve a concentration of ˜7.5×10^5 CFU/mL. A 96-well plate was set up such that a final volume of 100 μL was present in each well. Column 1 served as the negative control of growth (antibiotic only without bacteria added) and Column 11 served as the positive control of growth (bacteria only, no antibiotic).
# Into columns 2-11, 50 μL of CAMHB were added to each well. […] The solution was mixed, then 50 μL were removed and added to wells of column 3. This 1:2 dilution process was continued through column 10. Lastly, into each well of columns 2-11, 50 μL of the prepared bacterial solution were added. […] The 96-well plate was covered with adhesive film and incubated 24 hr at 37° C. The concentration of antibiotic that inhibited pellet formation or turbidity was considered the MIC.
# [11] = tested on: A. baumannii ATCC BAA 1605 biofilms; experiment: Biofilm efficacy in CAMHB broth, CDC biofilm reactor (Example 5); type: cell-based, Acinetobacter baumannii; settings: 24 hr
# Protocol: as §8
# Biofilms were grown on polycarbonate coupons in a CDC biofilm reactor following the manufacturer's recommendation. Once assembled and autoclaved, the reactor was inoculated. To do so, a fresh overnight culture of A. baumannii was used to make a 0.5 McFarland standard of the bacterial isolate (˜5×10^7 CFU/mL). One mL of the 0.5 McFarland solution was inoculated into 500 mL of BHI in the CDC biofilm reactor. The reactor was placed on a hot plate set at 34° C. and a baffle rotation of 130 rpm for 24 hr. After 24 hr batch growth, a continuous flow of 10% BHI was flowed through the reactor at ˜6.9 mL/min for an additional 168 hr (7 days).
# A 100 μL aliquot of broth was removed and plated using a 10-fold dilution series in order to quantify the CFU/coupon that remained. Testing was performed with n=3 repeats per concentration. A baseline of growth was determined by quantifying n=3 coupons/reactor immediately following growth.
# [12] = tested on: A. baumannii; experiment: In vivo efficacy, porcine excision wound model (Example 6); design: species or system Acinetobacter baumannii; settings: for Last Day that A. baumannii was Detected in At Least One Wound by Culture Swab / Log10 Transformed CFU/g Tissue at Necropsy (Day 28) / Last Day that A. baumannii was Detected in At Least One Wound: pig
# Description: Four Yorkeshire pigs with weight in the range of approximately 40-50 kg were quarantined for a minimum of 7 days. Positive reinforcement (Swedish Fish®, marshmallows, Snickers® bars, fruit and/or other treats) was provided once daily to help the pigs become accustom to having their back manipulated—e.g., a back scratch with a soft brush—by a research team member. A custom-fit jacket was also placed on pigs during the acclimation period to allow them to become aware of the covering that would be on their body.
# The night before a surgical procedure was to be performed, pigs were fasted. To perform surgery, pigs were anesthetized initially with a combination of tiletamine-zolazepam (Telazol®; 4.4 mg/kg), Ketamine (2.2 mg/kg) and Xylazine (2.2 mg/kg). Pigs were intubated, given isoflurane inhalant at 0.5-5.0%, transported to a surgical suite, placed in sternal recumbency and clipped/razor-shaved of hair in the region where excision wounds would be created. Pigs were rotated to dorsal recumbency and the jugular vein area was sterilely prepped using alternating betadine/isopropyl alcohol. Once prepped, the site was sterilely draped and a VAP was implanted. To do so, a ventral midline incision was made to isolate the jugular vein. A catheter was placed in the vein and secured. A second incision was made on the dorsal side of the neck and a tunnel created along the subcutaneous space from the second incision to the jugular vein. The catheter was passed through the tunnel. A VAP was anchored subdermally in the dorsal neck space with non-absorbable suture (e.g., Proline). The catheter was connected to the VAP and secured in the jugular vein. Both incision sites were closed using absorbable suture (e.g., Vicryl).
# With a VAP in place, a pig was rotated to sternal recumbency. The back was sterilely prepped for surgery, then draped. Using a 1 cm biopsy punch, excision wounds were created with a separation of approximately 2 cm between each wound. Wounds were organized into three or four sections with n=8 wounds/section (see FIG. 5). To reduce bleeding during wound creation, wound beds were treated with μL quantities of dilute epinephrine (1 mg/mL) as needed by the surgeon. Sterile saline-soaked gauze sponges were placed on excised wounds to maintain moisture as additional wounds were created. Once created, wounds were inoculated with bacteria (with the exception of negative control wounds) in either the planktonic or biofilm phenotype (see FIG. 5).
# For wounds inoculated with planktonic bacteria, 2-3 colonies from a fresh overnight culture of A. baumannii were adjusted to a turbidity of 10% (˜1×10^9 CFU/mL) in sterile PBS using a nephelometer. One hundred L were pipetted into wound beds on the left flank of an animal (see FIG. 5).
# Biofilm inoculation was performed by first growing biofilms on absorbable collagen for a total of 192 hrs (8 days) as described and transported to the OR in approved containers. Once the excision wounds were created, biofilm-containing collagen coupons were aseptically placed into wounds (one coupon/wound) on the right flank of an animal (see FIG. 1). […] Following inoculation, tincture of benzoin was applied to the border of each wound section to help maintain bandage adherence. Wounds were bandaged with a non-stick Telfa pad and Tegaderm. A custom jacket was also placed to further protect bandaging. Pigs were recovered and allowed to eat and drink ad libitum.
# All wounds were reinoculated with planktonic or biofilm bacteria once daily for 3 days following the surgical procedure (total of 4 inoculations). […] To perform the reinoculations, planktonic bacteria were made fresh each day.
# [13] = tested on: P. aeruginosa; experiment: EBEC analysis, high number biofilms on PEEK membranes; type: cell-based, Pseudomonas aeruginosa; settings: 24 hours
# Protocol: as §6, §7
# [14] = debrided wounds, biofilm phenotype
# [15] = debrided wounds, planktonic phenotype
# [16] = undebrided wounds, biofilm phenotype
# [17] = undebrided wounds, planktonic phenotype
compound,measurement,setting,value
"CCC(CC)CNCCCNCCCNCc1ccc(-c2cc(-c3ccc(CNCCCNCCCNCC(CC)CC)cc3)cc(C(C)(C)C)c2)cc1 [CZ-1-179, N^1,N^1′-((5′-(tert-butyl)-[1,1′:3′,1″-terphenyl]-4,4″-diyl)bis(methylene))bis(N^3-(3-((2-ethylbutyl)amino)propyl)propane-1,3-diamine)]",MIC,[1],0.5 µg/mL
same,MIC,[2],4 µg/mL
same,MIC,[3],2 µg/mL
same,MBC,[4],4 µg/mL
same,MBC,[5],1 µg/mL
same,MBC,[6],4 µg/mL
same,EBEC,[7],250 µg/mL
same,EBEC,[8],500 µg/mL
same,CFU/g Tissue,[9]; swine wounds inoculated with biofilm bacteria,0.00 CFU/g Tissue
same,CFU/g Tissue,[9]; swine wounds inoculated with planktonic bacteria,0.00 CFU/g Tissue
same,speed of eradication of A. baumannii,"[9]; swine wounds, topical",faster than SSD
same,MIC,[10],2 µg/mL
same,CFU/coupon remaining,[11]; 0.00125% (12.5 μg/mL),~9.2×10^5 CFU/coupon
same,log10 reduction of biofilm,[11]; 0.00125% (12.5 μg/mL),~2 log10
same,CFU/coupon remaining,[11]; […] (25 μg/mL),~4.8×10^3 CFU/coupon
same,log10 reduction of biofilm,[11]; […] (25 μg/mL),~4 log10
same,eradication of biofilms,"[11]; concentrations from 2% (20 mg/mL) down to 0.005% (50 μg/mL), polycarbonate coupons",full eradication of biofilms
same,Day after which A. baumannii was no longer detected by culture,[12]; Pig 2 (topical agents only),6 days
same,A. baumannii by culture on Day 6,[12]; Pig 4 (IV+topical products),none of the wounds
same,Day on which healing was obvious,[12]; Pig 4 (IV+topical products),≤ 8 days
same,Day on which signs of infection resolved,[12]; Pig 4 (IV+topical products),≤ 6 days
same,Day on which wound contraction was notable,"[12]; Pig 4 (IV+topical products), biofilm wounds",≤ 7 days
same,Day on which wound contraction was notable,"[12]; Pig 4 (IV+topical products), planktonic wounds",≤ 7 days
same,reduction of bioburden,"[12]; Pig 4, in combination with IV antibiotics",reduced completely within two weeks
same,days sooner signs of infection cleared than the host alone,[12]; pig wounds,3 to 4 days
same,Last Day that A. baumannii was Detected in At Least One Wound by Culture Swab,[12]; [14],5
same,Log10 Transformed CFU/g Tissue at Necropsy (Day 28),[12]; [14],0
same,Last Day that A. baumannii was Detected in At Least One Wound by Culture Swab,[12]; [15],5
same,Log10 Transformed CFU/g Tissue at Necropsy (Day 28),[12]; [15],0
same,Last Day that A. baumannii was Detected in At Least One Wound,[12]; [16],5
same,Log10 Transformed CFU/g Tissue at Necropsy (Day 28),[12]; [16],0
same,Last Day that A. baumannii was Detected in At Least One Wound,[12]; [17],5
same,Log10 Transformed CFU/g Tissue at Necropsy (Day 28),[12]; [17],0
"CC(C)CCNCCCNCCCNCc1cccc(-c2cc(-c3cccc(CNCCCNCCCNCCC(C)C)c3)cc(C(C)(C)C)c2)c1 [CZ-1-182, N^1,N^1′-((5′-(tert-butyl)-[1,1′:3′,1″-terphenyl]-3,3″-diyl)bis(methylene))bis(N^3-(3-(isopentylamino)propyl)propane-1,3-diamine)]",MIC,[1],0.25 µg/mL
same,MIC,[2],4 µg/mL
same,MIC,[3],32 µg/mL
same,EBEC,[7],100 µg/mL
same,EBEC,[13],150 µg/mL
same,EBEC,[8],300 µg/mL
